Results published in PubChem BioAssay AID330 (DTP/NCI, 2004).
“And” between values parts separate entries of the source, which are not always exact repeats. Equal entries are not always repeated. Toxic doses and inconclusive results are not listed.

Test system: P388 leukemia ip, CD2F1 mice, survival T/C
Test: NCI In Vivo Anticancer Drug Screen. Data for tumor model P388 Leukemia (intraperitoneal) in CD2F1 (CDF1) mice
Conditions: endpoint: median survival time, higher = longer survival
How it was run: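 Mice carrying the transplanted tumor received test compound or vehicle. Survival was recorded in each group, and the value is the treated-group measurement divided by that of the vehicle-treated control group.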

[1] = dose: 50.0 mg/kg/injection, schedule: Q01DX005 (ip), vehicle: saline
[2] = dose: 50.0 mg/kg/injection, schedule: Q01DX009 (ip), vehicle: saline with Tween-80
[3] = dose: 100.0 mg/kg/injection, schedule: Q01DX005 (ip), vehicle: saline
[4] = dose: 200.0 mg/kg/injection, schedule: Q01DX005 (ip), vehicle: saline

In the case of `O=c1[nH]cc(F)c(=O)[nH]1`, the T/C (dose: 6.25 mg/kg/injection, schedule: Q01DX009 (ip), vehicle: saline) is reported as 163 % of control, the T/C (dose: 7.5 mg/kg/injection, schedule: Q01DX009 (ip), vehicle: saline) is reported as 167 % of control and 172 % of control and the T/C (dose: 7.5 mg/kg/injection, schedule: Q01DX009 (oral), vehicle: clinical formulation) is reported as 107 % of control. For the same molecule, the T/C (dose: 7.5 mg/kg/injection, schedule: Q03HX024 (ip), vehicle: saline) was 201 % of control, the T/C (dose: 7.5 mg/kg/injection, schedule: Q04DX003 (iv), vehicle: saline) was 107 % of control and the T/C (dose: 7.8 mg/kg/injection, schedule: Q04DX003 (ip), vehicle: saline) was 99 % of control. The T/C (dose: 9.0 mg/kg/injection, schedule: Q01DX009 (ip), vehicle: saline) was 159 % of control, the T/C (dose: 10.0 mg/kg/injection, schedule: Q03HX024 (ip), vehicle: saline) was 228 % of control and the T/C (dose: 10.0 mg/kg/injection, schedule: Q04DX002 (ip), vehicle: saline) was 123 % of control. For the same molecule, the T/C (dose: 12.0 mg/kg/injection, schedule: Q01DX009 (ip), vehicle: saline) was 153 % of control and 166 % of control, the T/C (dose: 12.5 mg/kg/injection, schedule: Q01DX005 (ip), vehicle: saline) was 167 % of control and 176 % of control and the T/C (dose: 12.5 mg/kg/injection, schedule: Q01DX009 (ip), vehicle: saline) was 166 % of control. For the same molecule, the T/C (dose: 13.0 mg/kg/injection, schedule: Q04DX002 (ip), vehicle: saline) was 106 % of control, the T/C (dose: 13.2 mg/kg/injection, schedule: Q01DX009 (ip), vehicle: saline) was 182 % of control and 213 % of control and the T/C (dose: 13.2 mg/kg/injection, schedule: Q01DX009 (ip), vehicle: water) was 200 % of control. For the same molecule, the T/C (dose: 13.3 mg/kg/injection, schedule: Q01DX009 (ip), vehicle: saline sonified) was 165 % of control and 181 % of control and 200 % of control, the T/C (dose: 15.0 mg/kg/injection, schedule: Q03HX024 (ip), vehicle: saline) was 257 % of control and the T/C (dose: 15.0 mg/kg/injection, schedule: Q04DX003 (iv), vehicle: saline) was 109 % of control. For the same molecule, the T/C (dose: 16.0 mg/kg/injection, schedule: Q01DX009 (ip), vehicle: saline) was 212 % of control, the T/C (dose: 18.0 mg/kg/injection, schedule: Q01DX009 (ip), vehicle: saline) was 166 % of control and the T/C (dose: 19.0 mg/kg/injection, schedule: Q01DX009 (ip), vehicle: saline) was 170 % of control. For the same molecule, the T/C (dose: 20.0 mg/kg/injection, schedule: Q01DX009 (ip), vehicle: water) was 118 % of control, the T/C (dose: 21.6 mg/kg/injection, schedule: Q04DX002 (ip), vehicle: saline) was 97 % of control and the T/C (dose: 22.5 mg/kg/injection, schedule: Q03HX024 (ip), vehicle: saline) was 118 % of control. For the same molecule, the T/C (dose: 24.0 mg/kg/injection, schedule: Q01DX009 (ip), vehicle: saline) was 119 % of control and 223 % of control, the T/C (dose: 25.0 mg/kg/injection, schedule: Q01DX001 (iv), vehicle: saline) was 120 % of control and the T/C (dose: 27.0 mg/kg/injection, schedule: Q01DX009 (ip), vehicle: water) was 97 % of control. For the same molecule, the T/C (dose: 27.0 mg/kg/injection, schedule: Q04DX003 (ip), vehicle: saline) was 158 % of control, the T/C (dose: 28.0 mg/kg/injection, schedule: Q01DX009 (ip), vehicle: saline) was 101 % of control and the T/C (dose: 28.8 mg/kg/injection, schedule: Q01DX005 (ip), vehicle: saline) was 158 % of control. The T/C (dose: 30.0 mg/kg/injection, schedule: Q03DX003 (ip), vehicle: saline) was 162 % of control, the T/C (dose: 30.0 mg/kg/injection, schedule: Q04DX003 (iv), vehicle: saline) was 124 % of control and the T/C (dose: 36.0 mg/kg/injection, schedule: Q01DX009 (ip), vehicle: saline) was 100 % of control. For the same molecule, the T/C (dose: 36.0 mg/kg/injection, schedule: Q04DX002 (ip), vehicle: saline) was 112 % of control, the T/C (dose: 40.0 mg/kg/injection, schedule: Q03DX003 (ip), vehicle: saline) was 165 % of control and the T/C (dose: 45.0 mg/kg/injection, schedule: Q01DX009 (ip), vehicle: saline) was 99 % of control. For the same molecule, the T/C (dose: 48.0 mg/kg/injection, schedule: Q01DX005 (ip), vehicle: saline) was 109 % of control, the T/C (dose: 50.0 mg/kg/injection, schedule: Q01DX001 (ip), vehicle: saline) was 119 % of control and the T/C [1] was 112 % of control. For the same molecule, the T/C (dose: 50.0 mg/kg/injection, schedule: Q03DX003 (ip), vehicle: saline) was 168 % of control, the T/C (dose: 50.0 mg/kg/injection, schedule: Q04DX002 (ip), vehicle: saline) was 154 % of control and the T/C (dose: 54.0 mg/kg/injection, schedule: Q04DX003 (ip), vehicle: saline) was 159 % of control. The T/C (dose: 60.0 mg/kg/injection, schedule: Q01DX009 (oral), vehicle: clinical formulation) was 94 % of control, the T/C (dose: 60.0 mg/kg/injection, schedule: Q03DX003 (ip), vehicle: saline) was 99 % of control and the T/C (dose: 60.0 mg/kg/injection, schedule: Q04DX003 (ip), vehicle: water) was 170 % of control. For the same molecule, the T/C (dose: 60.0 mg/kg/injection, schedule: Q04DX003 (iv), vehicle: saline) was 122 % of control, the T/C (dose: 66.0 mg/kg/injection, schedule: Q01DX001 (ip), vehicle: saline) was 120 % of control and the T/C (dose: 75.0 mg/kg/injection, schedule: Q01DX005 (ip), vehicle: saline) was 99 % of control. For the same molecule, the T/C (dose: 75.0 mg/kg/injection, schedule: Q04DX003 (ip), vehicle: saline) was 185 % of control and 192 % of control and 199 % of control, the T/C (dose: 88.0 mg/kg/injection, schedule: Q01DX001 (ip), vehicle: saline) was 115 % of control and the T/C (dose: 90.0 mg/kg/injection, schedule: Q04DX003 (ip), vehicle: saline sonified) was 108 % of control. For the same molecule, the T/C (dose: 100.0 mg/kg/injection, schedule: Q01DX001 (iv), vehicle: saline) was 164 % of control, the T/C (dose: 120.0 mg/kg/injection, schedule: Q01DX005 (ip), vehicle: saline) was 91 % of control and the T/C (dose: 120.0 mg/kg/injection, schedule: Q01DX009 (ip), vehicle: saline) was 83 % of control. The T/C (dose: 120.0 mg/kg/injection, schedule: Q04DX003 (iv), vehicle: saline) was 87 % of control, the T/C (dose: 125.0 mg/kg/injection, schedule: Q04DX003 (ip), vehicle: saline) was 109 % of control and the T/C (dose: 133.3 mg/kg/injection, schedule: Q01DX001 (ip), vehicle: saline) was 337 % of control. For the same molecule, the T/C (dose: 135.0 mg/kg/injection, schedule: Q04DX003 (ip), vehicle: saline) was 98 % of control, the T/C (dose: 166.7 mg/kg/injection, schedule: Q04DX003 (ip), vehicle: saline) was 79 % of control and 81 % of control and the T/C (dose: 400.0 mg/kg/injection, schedule: Q01DX001 (iv), vehicle: saline) was 100 % of control.

In the case of `Cc1ccc(NCCNCCO)c2c(=O)c3ccc(O)cc3sc12`, the T/C [2] is reported as 174 % of control.

`CC(C)[C@H]1OC(=O)C=C2[C@@]13O[C@@H]3[C@H]1OC(=O)[C@]3(C)C1[C@]2(C)CC[C@@H]3O` (some centres undefined) was tested, and the T/C (dose: 1.0 mg/kg/injection, schedule: Q01DX009 (ip), vehicle: saline with Tween-80) was 101 % of control and the T/C (dose: 40.0 mg/kg/injection, schedule: Q01DX009 (ip), vehicle: saline with Tween-80) was 105 % of control.

For `CN(CC(=O)C(O)C(O)C(O)CO)c1ccccc1` (centres undefined), the T/C [1] was 99 % of control, the T/C [3] was 100 % of control and the T/C [4] was 100 % of control.

With `C[N+](C)(C)CC(C[N+](C)(C)C)C(=O)c1ccccc1` the T/C (dose: 6.25 mg/kg/injection, schedule: Q01DX009 (ip), vehicle: Klucel (hydroxypropylcellulose) (HPC)) was 107 % of control and the T/C (dose: 12.5 mg/kg/injection, schedule: Q01DX009 (ip), vehicle: Klucel (hydroxypropylcellulose) (HPC)) was 108 % of control.

In the case of `O=C1OC(C2OC(=O)C(=O)C2C2CCCCCCC2=O)C(C2CCCCCCC2=O)C1=O` (centres undefined), the T/C (dose: 60.0 mg/kg/injection, schedule: Q01DX005 (ip), vehicle: saline with Tween-80) is reported as 102 % of control, the T/C (dose: 120.0 mg/kg/injection, schedule: Q01DX005 (ip), vehicle: saline with Tween-80) is reported as 95 % of control and the T/C (dose: 240.0 mg/kg/injection, schedule: Q01DX005 (ip), vehicle: saline with Tween-80) is reported as 100 % of control.

`CCCCCCCC/C=C\CCCCCCCC(=O)OC` was tested, and the T/C (dose: 177.0 mg/kg/injection, schedule: Q01DX009 (ip), vehicle: saline with Tween-80) was 109 % of control, the T/C (dose: 266.0 mg/kg/injection, schedule: Q01DX009 (ip), vehicle: saline with Tween-80) was 116 % of control and the T/C (dose: 400.0 mg/kg/injection, schedule: Q01DX009 (ip), vehicle: saline with Tween-80) was 106 % of control. For the same molecule, the T/C (dose: 600.0 mg/kg/injection, schedule: Q01DX009 (ip), vehicle: saline with Tween-80) was 107 % of control.

`CN(C)c1ccc2c(c1)Cc1cc(N=C3C=CC(=O)O3)ccc1-2` was tested, and the T/C [2] was 100 % of control, the T/C (dose: 100.0 mg/kg/injection, schedule: Q01DX009 (ip), vehicle: saline with Tween-80) was 100 % of control and the T/C (dose: 100.0 mg/kg/injection, schedule: Q04DX003 (ip), vehicle: saline with Tween-80) was 109 % of control. For the same molecule, the T/C (dose: 200.0 mg/kg/injection, schedule: Q01DX009 (ip), vehicle: saline with Tween-80) was 100 % of control and the T/C (dose: 200.0 mg/kg/injection, schedule: Q04DX003 (ip), vehicle: saline with Tween-80) was 95 % of control.

`O=C1CC(C(=O)O)C(C(=O)O)O1` (centres undefined) was tested, and the T/C [1] was 100 % of control, the T/C [3] was 111 % of control and the T/C [4] was 93 % of control.

For `O=C(O)CN(CCN(CC(=O)O)CC(=O)O)CC(=O)O`, the T/C (dose: 100.0 mg/kg/injection, schedule: Q04DX003 (ip), vehicle: saline) was 100 % of control.
